Data: ChEMBL document CHEMBL4196002, “Design, synthesis, mechanistic and histopathological studies of small-molecules of novel indole-2-carboxamides and pyrazino[1,2-a]indol-1(2H)-ones as potential anticancer agents effecting the reactive oxygen species production” (Eur J Med Chem, 2018)
Calls of active or inactive are those of the source. The rule behind the calls is not given here.

Experiments:
[1] = system: MDA-MB-435; test: Growth inhibition of human MDA-MB-435 cells after 48 hrs by SRB assay; type: functional; settings: MDA-MB-435, 48 h
[2] = system: MCF7; test: Growth inhibition of human MCF7 cells after 48 hrs by SRB assay; type: functional; settings: MCF7, 48 h
[3] = Antioxidant activity assessed as DPPH radical scavenging activity at 10 uM after 30 mins dark incubation; type: functional
[4] = system: Mus musculus; test: Inhibition of chlorpyrifos-induced fibrosis in albino mouse testis assessed as thin fibrous capsule at 20 mg/kg, qd administered via oral gavage followed by chlorpyrifos challenge at 30 mins post dose by masson's trichrome staining-based light microscopic analysis; type: functional, organism-based
[5] = Antioxidant activity assessed as DPPH radical scavenging activity at 50 uM after 30 mins dark incubation; type: functional
[6] = system: Mus musculus; test: Inhibition of chlorpyrifos-induced caspase3 epression in albino mouse testes at 20 mg/kg, qd administered via oral gavage followed by chlorpyrifos challenge at 30 mins post dose by immunohistochemical analysis; type: functional, organism-based
[7] = Inhibition of ROS generation in human PMN at 6.25 ug/ml after 50 mins by luminol-based chemiluminescence assay relative to control; type: functional
[8] = Inhibition of ROS generation in human PMN at 3.13 ug/ml after 50 mins by luminol-based chemiluminescence assay relative to control; type: functional
[9] = system: MIA PaCa-2; test: Antiproliferative activity human MIAPaCa2 cells after 48 hrs by propidium iodide staining-based fluorescence assay; type: functional, cell-based; settings: MIA PaCa-2, 48 h
[10] = species on record: Homo sapiens; test: (§1) Inhibition of ROS generation in human PMN after 50 mins by luminol-based chemiluminescence assay; type: functional
[11] = as §1; type: functional
[12] = system: Mus musculus; test: (§2) Inhibition of chlorpyrifos-induced testicular damage in albino mouse assessed as increase in spermatogenic cell layers at 20 mg/kg, qd administered via oral gavage followed by chlorpyrifos challenge at 30 mins post dose by haematoxylin and eosin staining-based light microscopic analysis; type: functional, organism-based
[13] = system: PC-3; test: Antiproliferative activity human PC3 cells after 48 hrs by propidium iodide staining-based fluorescence assay; type: functional, cell-based; settings: PC-3, 48 h
[14] = Inhibition of ROS generation in human PMN at 0.78 ug/ml after 50 mins by luminol-based chemiluminescence assay relative to control; type: functional
[15] = system: Mus musculus; test: Inhibition of chlorpyrifos-induced testicular damage in albino mouse assessed as appearance of spermatozoa tails in lumina at 20 mg/kg, qd administered via oral gavage followed by chlorpyrifos challenge at 30 mins post dose by haematoxylin and eosin staining-based light microscopic analysis; type: functional, organism-based
[16] = target: Serine/threonine-protein kinase B-raf (Mus musculus, UniProt P28028, V600E); test: Inhibition of mouse full-length GST-tagged BRAF V600E mutant using recombinant human full length N-terminal His-tagged MEK1 as substrate preincubated for 60 mins followed by substrate addition and measured after 25 mins by ELISA
Serine/threonine-protein kinase B-raf, sequence (P28028 whole entry, looked up, stated change not applied, the tested form may be a part): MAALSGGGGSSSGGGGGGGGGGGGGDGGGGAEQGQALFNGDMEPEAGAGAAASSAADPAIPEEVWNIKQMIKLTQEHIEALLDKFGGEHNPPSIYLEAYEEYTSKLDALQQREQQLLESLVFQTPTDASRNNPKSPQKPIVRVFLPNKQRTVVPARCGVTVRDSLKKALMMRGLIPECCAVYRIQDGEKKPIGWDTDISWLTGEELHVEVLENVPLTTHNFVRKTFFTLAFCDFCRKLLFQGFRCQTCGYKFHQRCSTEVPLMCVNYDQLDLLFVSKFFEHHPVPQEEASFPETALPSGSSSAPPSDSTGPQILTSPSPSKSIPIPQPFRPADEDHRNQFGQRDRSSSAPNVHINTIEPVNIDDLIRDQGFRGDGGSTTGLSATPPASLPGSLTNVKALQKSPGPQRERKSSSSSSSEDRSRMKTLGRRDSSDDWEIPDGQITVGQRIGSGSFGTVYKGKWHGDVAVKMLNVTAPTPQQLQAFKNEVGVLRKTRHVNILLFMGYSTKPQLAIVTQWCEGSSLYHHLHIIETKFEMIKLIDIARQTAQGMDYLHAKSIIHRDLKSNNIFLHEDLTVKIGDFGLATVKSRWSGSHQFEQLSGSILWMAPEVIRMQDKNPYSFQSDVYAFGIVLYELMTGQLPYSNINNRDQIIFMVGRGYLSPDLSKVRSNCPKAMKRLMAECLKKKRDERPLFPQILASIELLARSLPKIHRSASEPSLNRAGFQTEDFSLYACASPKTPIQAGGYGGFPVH

[17] = target: Epidermal growth factor receptor (Homo sapiens, UniProt P00533); test: Inhibition of His6-tagged EGFR (unknown origin) cytoplasmic domain expressed in baculovirus infected Sf9 insect cells after 10 mins followed by addition of ATP-MgCl2 and measured after 1 hr by time-resolved fluorometric analysis
Epidermal growth factor receptor, sequence (P00533 whole entry, the tested form may be a part): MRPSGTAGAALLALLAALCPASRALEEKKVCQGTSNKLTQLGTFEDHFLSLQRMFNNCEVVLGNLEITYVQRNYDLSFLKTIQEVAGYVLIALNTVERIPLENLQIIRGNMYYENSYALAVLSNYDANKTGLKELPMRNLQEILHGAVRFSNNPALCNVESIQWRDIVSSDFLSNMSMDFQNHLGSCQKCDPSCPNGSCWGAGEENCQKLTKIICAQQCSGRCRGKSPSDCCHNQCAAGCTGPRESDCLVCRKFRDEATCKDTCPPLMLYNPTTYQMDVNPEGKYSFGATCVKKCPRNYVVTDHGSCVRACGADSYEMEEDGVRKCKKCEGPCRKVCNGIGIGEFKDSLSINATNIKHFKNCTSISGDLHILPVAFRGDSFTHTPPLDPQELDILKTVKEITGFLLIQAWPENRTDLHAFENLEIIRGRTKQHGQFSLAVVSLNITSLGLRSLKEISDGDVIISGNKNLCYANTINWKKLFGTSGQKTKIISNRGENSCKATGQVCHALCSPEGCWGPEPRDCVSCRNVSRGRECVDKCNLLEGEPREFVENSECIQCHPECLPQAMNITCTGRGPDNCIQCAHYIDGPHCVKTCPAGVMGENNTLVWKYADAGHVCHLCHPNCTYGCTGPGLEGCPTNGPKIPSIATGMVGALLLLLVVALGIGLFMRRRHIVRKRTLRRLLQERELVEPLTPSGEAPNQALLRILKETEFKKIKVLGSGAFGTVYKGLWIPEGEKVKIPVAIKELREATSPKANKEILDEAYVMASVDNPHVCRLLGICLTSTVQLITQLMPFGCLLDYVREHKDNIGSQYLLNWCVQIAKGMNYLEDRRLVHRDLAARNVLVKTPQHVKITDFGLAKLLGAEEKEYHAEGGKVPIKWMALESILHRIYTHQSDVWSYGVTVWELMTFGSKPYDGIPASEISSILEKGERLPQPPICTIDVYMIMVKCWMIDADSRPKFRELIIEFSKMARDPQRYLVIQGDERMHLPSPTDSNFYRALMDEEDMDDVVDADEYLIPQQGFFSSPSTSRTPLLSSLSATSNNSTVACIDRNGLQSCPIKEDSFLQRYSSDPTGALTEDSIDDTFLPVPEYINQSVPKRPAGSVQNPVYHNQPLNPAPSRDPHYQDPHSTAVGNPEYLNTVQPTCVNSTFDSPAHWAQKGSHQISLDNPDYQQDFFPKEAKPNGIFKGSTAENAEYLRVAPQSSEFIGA

[18] = Inhibition of ROS generation in human PMN at 12.5 ug/ml after 50 mins by luminol-based chemiluminescence assay relative to control; type: functional
[19] = system: MCF7; test: Antiproliferative activity human MCF7 cells after 48 hrs by propidium iodide staining-based fluorescence assay; type: functional, cell-based; settings: MCF7, 48 h
[20] = Cytotoxicity against human MCF10A cells assessed as cell viability at 50 uM after 96 hrs by MTT assay relative to control; type: cell-based, MCF-10A; settings: read-out: Activity
[21] = system: Mus musculus; test: (§3) Inhibition of chlorpyrifos-induced testicular damage in albino mouse assessed as appearance of normal sertoli cells at 20 mg/kg, qd administered via oral gavage followed by chlorpyrifos challenge at 30 mins post dose by haematoxylin and eosin staining-based light microscopic analysis; type: functional, organism-based
[22] = system: Mus musculus; test: as §2, with “appearance of well-organized” for “increase in”, “spermatogenic” for “spermatogenic cell”, “layers at different stages of spermatogenesis” for “layers”; type: functional, organism-based
[23] = system: Mus musculus; test: Inhibition of chlorpyrifos-induced fibrosis in albino mouse testis assessed as decrease in collagen in interstitium at 20 mg/kg, qd administered via oral gavage followed by chlorpyrifos challenge at 30 mins post dose by masson's trichrome staining-based light microscopic analysis; type: functional, organism-based
[24] = system: HT-29; test: Antiproliferative activity human HT-29 cells after 48 hrs by propidium iodide staining-based fluorescence assay; type: functional, cell-based; settings: HT-29, 48 h
[25] = Inhibition of ROS generation in human PMN at 1.56 ug/ml after 50 mins by luminol-based chemiluminescence assay relative to control; type: functional
[26] = system: A549; test: Antiproliferative activity human A549 cells after 48 hrs by propidium iodide staining-based fluorescence assay; type: functional, cell-based; settings: A549, 48 h
[27] = system: Mus musculus; test: as §3, with “absence” for “appearance”, “crowdedness of interstitial” for “normal sertoli”, “cells with relatively low exudate” for “cells”; type: functional, organism-based
[28] = system: Mus musculus; test: Inhibition of chlorpyrifos-induced iNOS epression in albino mouse testes at 20 mg/kg, qd administered via oral gavage followed by chlorpyrifos challenge at 30 mins post dose by immunohistochemical analysis; type: functional, organism-based
[29] = Antioxidant activity assessed as DPPH radical scavenging activity at 100 uM after 30 mins dark incubation; type: functional
[30] = target: Tubulin (Homo sapiens) (UniProt P68371+Q9H4B7+P0DPH7+P68366+Q13509+Q71U36+P04350+Q3ZCM7+P07437+P68363+Q9BQE3+Q6PEY2+Q13885+Q9BVA1+Q9BUF5); test: Inhibition of tubulin (unknown origin) polymerization assessed as tubulin assembly rate by fluorescence assay; type: protein-complex assay
[31] = species on record: Mus musculus; settings: 20 mg/kg
Description: Inhibition of chlorpyrifos-induced testicular damage in albino mouse assessed as appearance of separated semniferous tubules by narrow interstitium without exudate at 20 mg/kg, qd administered via oral gavage followed by chlorpyrifos challenge at 30 mins post dose by haematoxylin and eosin staining-based light microscopic analysis

[32] = species on record: Mus musculus; settings: 20 mg/kg; remark: listed apart in the source
Description: Inhibition of chlorpyrifos-induced testicular damage in albino mouse assessed as appearance of cellular vaculations in germinal epithelium at 20 mg/kg, qd administered via oral gavage followed by chlorpyrifos challenge at 30 mins post dose by haematoxylin and eosin staining-based light microscopic analysis

[33] = species on record: Mus musculus; settings: 20 mg/kg; remark: listed apart in the source
Description: Inhibition of chlorpyrifos-induced testicular damage in albino mouse assessed as appearance of spermatozoa tails in narrow lumina at 20 mg/kg, qd administered via oral gavage followed by chlorpyrifos challenge at 30 mins post dose by haematoxylin and eosin staining-based light microscopic analysis

[34] = species on record: Mus musculus; settings: 20 mg/kg; remark: listed apart in the source
Description: Inhibition of chlorpyrifos-induced testicular damage in albino mouse assessed as appearance of vesicular nuclei in spermatogenic cells at 20 mg/kg, qd administered via oral gavage followed by chlorpyrifos challenge at 30 mins post dose by haematoxylin and eosin staining-based light microscopic analysis

[35] = species on record: Mus musculus; settings: 20 mg/kg; remark: listed apart in the source
Description: Inhibition of chlorpyrifos-induced testicular damage in albino mouse assessed as absence of sloughed cells at 20 mg/kg, qd administered via oral gavage followed by chlorpyrifos challenge at 30 mins post dose by haematoxylin and eosin staining-based light microscopic analysis

Cc1ccc(S(=O)(=O)N2c3ccccc3CC2c2nc(Br)cnc2N)cc1 (stereo not drawn)
GI50 [1]: 290 nM | GI50 [2]: 820 nM

O=c1[nH]c(Cc2ccccc2)cn2c1cc1cc(Cl)ccc12
Activity [3]: 69.4% | inhibition [4]: Active | Activity [5]: 79.6% | inhibition [6]: Active | inhibition at 6.25 µg/mL [7]: 72% | inhibition at 3.13 µg/mL [8]: 64% | IC50 [9]: 1800 nM | inhibition [10]: Dose-dependent effect | IC50 [11]: 3360 nM | inhibition [12]: Active | IC50 [13]: 1300 nM | inhibition at 0.78 µg/mL [14]: 47% | inhibition [15]: Active | IC50 [16]: 1000 nM | IC50 [17]: 2400 nM | inhibition at 12.5 µg/mL [18]: 81% | IC50 [19]: 900 nM | viability at 96 h, 50 µM [20]: 89% | inhibition [21]: Active | inhibition [22]: Active | inhibition [23]: Active | IC50 [24]: 900 nM | inhibition at 1.56 µg/mL [25]: 55% | IC50 [26]: 1200 nM | inhibition [27]: Active | inhibition [28]: Active | Activity [29]: 91.4% | Activity [30]: 930 a.u.

Cc1c2cc(Cl)ccc2n2cc(Cc3ccccc3)[nH]c(=O)c12
Activity [3]: 72.3% | inhibition [4]: Active | Activity [5]: 85.4% | inhibition [31]: Active | inhibition [6]: Active | inhibition at 6.25 µg/mL [7]: 85% | inhibition [32]: Active | inhibition at 3.13 µg/mL [8]: 72% | IC50 [9]: 300 nM | inhibition [10]: Dose-dependent effect | IC50 [11]: 1480 nM | inhibition [12]: Active | IC50 [13]: 900 nM | inhibition at 0.78 µg/mL [14]: 55% | inhibition [33]: Active | IC50 [16]: 100 nM | inhibition at 12.5 µg/mL [18]: 91% | IC50 [19]: 100 nM | viability at 96 h, 50 µM [20]: 91% | inhibition [34]: Active | inhibition [23]: Active | IC50 [24]: 600 nM | inhibition at 1.56 µg/mL [25]: 60% | IC50 [26]: 800 nM | inhibition [35]: Active | inhibition [28]: Active | Activity [29]: 97.7% | Activity [30]: 650 a.u.
